The values below come from patent US20260234180A1, “AMINO ACID DERIVATIVE, PREPARATION METHOD THEREFOR, AND PHARMACEUTICAL COMPOSITION FOR TREATING HEPATITIS, COMPRISING SAME” (priority 2021, published 2026).

This assay deals with HBV virus. Nature of the assay: HBV infection of HepG2-NTCP cells, HBeAg ELISA analysis. It counts as cell-based, hepatitis B virus (HBV). Particulars: 20 μM, O.D. 450 nm. The procedure: Specifically, the HepG2-NTCP cell line was cultured on a 6-well plate, incubation was performed overnight, HBV inhibitors were treated at a concentration of 20 μM, and the positive control Myrcludex-B (MyrB) was treated at a concentration of 200 nM, followed by culture for 24 hours. After HBV infection into the cells to make HBV 3000 genome equivalent per ml/cell (Geq/cell), the cell culture medium was replaced (medium changing, MC) a day after the viral infection to remove the virus unattached to cell membranes. In order to measure an amount of virus that entered the cell, medium changing (MC) was performed once more 4 days after viral infection. 2 days after replacement, HBeAg ELISA analysis was performed using a supernatant, and Southern blot analysis was performed with cell pellets.
HBeAg ELISA analysis was performed using an HBeAg ELISA kit (sanbio, Wantai HBeAg ELISA, cat #WB-2496) for the supernatant obtained by the method in Experimental Example 4-1.
First, a negative control group (Mock), positive control group (MyrB), and samples according to the present disclosure were loaded, by 50 μl each to be triplicate, onto a 96-well plate coated with capture Ab. In this case, Example 1 (LCA-ILE), Example 44 (LCA-Val), Example 52 (LCA-Tyr), Example 51 (LCA-Ser), Example 55 (LCA-Glu), Example 2 (UDCA-Ile), Example 3 (UDCA-Val), Example 25 (LCA-Val-Trp), Example 10 (DCA-Ile), Comparative Example 1 (LCA), and Comparative Example 2 (UDCA) were used as the sample.
The HRP-conjugated detection antibody was loaded into each well by 50 μl, followed by a reaction at 37° C. for 30 minutes. Washing buffer (1×PBS, 0.5% Tween20) was added by 200 μl, and washing was performed 5 times. 50 μl of chromogen solution A and 50 μl of chromogen solution B were added to each well, and a reaction was carried out in the darkness at 37° C. for 15 minutes. The stop solution was added to each well by 50 μl each to stop the reaction, and the amount of HBeAg was measured by measuring the absorbance (optical density, O.D.) level in the 450 nm wavelength band.

Each structure is given as a SMILES string.

On to `CC[C@@H](C)[C@H](NC(=O)CC[C@@H](C)[C@H]1CC[C@H]2[C@@H]3CC[C@@H]4C[C@H](O)CC[C@]4(C)[C@H]3CC[C@]12C)C(=O)O` [Example 1, (2S,3R)-2-((R)-4-((3R,5R,8R,9S,10S,13R,14S,17R)-3-hydroxy-10,13-dimethyl-hexadecahydro-1H-cyclopenta[a]phenanthren-17-yl)pentanamido)-3-methylpentanoic acid], for which the “HBeAg absorbance level relative to Comparative Example 1 (LCA) and Comparative Example 2 (UDCA)” value is “lower”; the “HBeAg absorbance level relative to the negative control group (Mock)” value is “relatively lower”.

With `CC[C@@H](C)[C@H](NC(=O)CC[C@@H](C)[C@H]1CC[C@H]2[C@@H]3[C@@H](O)C[C@@H]4C[C@H](O)CC[C@]4(C)[C@H]3CC[C@]12C)C(=O)O` [Example 2, (2S,3R)-2-((R)-4-((3R,5S,7S,8R,9S,10S,13R,14S,17R)-3,7-dihydroxy-10,13-dimethyl-hexadecahydro-1H-cyclopenta[a]phenanthren-17-yl)pentanamido)-3-methylpentanoic acid], the “HBeAg absorbance level relative to Comparative Example 1 (LCA) and Comparative Example 2 (UDCA)” value was “lower”; the “HBeAg absorbance level relative to the negative control group (Mock)” value is listed as “relatively lower”.

With `CC(C)[C@H](NC(=O)CC[C@@H](C)[C@H]1CC[C@H]2[C@@H]3[C@@H](O)C[C@@H]4C[C@H](O)CC[C@]4(C)[C@H]3CC[C@]12C)C(=O)O` [Example 3, (S)-2-((R)-4-((3R,5S,7S,8R,9S,10S,13R,14S,17R)-3,7-dihydroxy-10,13-dimethyl-hexadecahydro-1H-cyclopenta[a]phenanthren-17-yl)pentanamido)-3-methylbutanoic acid], the “HBeAg absorbance level relative to Comparative Example 1 (LCA) and Comparative Example 2 (UDCA)” value was “lower”; the “HBeAg absorbance level relative to the negative control group (Mock)” value is given as “relatively lower”.

On to `CC[C@@H](C)[C@H](NC(=O)CC[C@@H](C)[C@H]1CC[C@H]2[C@@H]3CC[C@@H]4C[C@H](O)CC[C@]4(C)[C@H]3C[C@H](O)[C@]12C)C(=O)O` [Example 10, (2S,3R)-2-((R)-4-((3R,5R,8R,9S,10S,12S,13R,14S,17R)-3,12-dihydroxy-10,13-dimethyl-hexadecahydro-1H-cyclopenta[a]phenanthren-17-yl)pentanamido)-3-methylpentanoic acid], for which the “HBeAg absorbance level relative to Comparative Example 1 (LCA) and Comparative Example 2 (UDCA)” value is recorded as “lower”; the “HBeAg absorbance level relative to the negative control group (Mock)” value was “relatively lower”.

Turning to `CC(C)[C@H](NC(=O)CC[C@@H](C)[C@H]1CC[C@H]2[C@@H]3CC[C@@H]4C[C@H](O)CC[C@]4(C)[C@H]3CC[C@]12C)C(=O)O` [Example 44, (S)-2-((R)-4-((3R,5R,8R,9S,10S,13R,14S,17R)-3-hydroxy-10,13-dimethyl-hexadecahydro-1H-cyclopenta[a]phenanthren-17-yl)pentanamido)-3-methylbutanoic acid], the “HBeAg absorbance level relative to Comparative Example 1 (LCA) and Comparative Example 2 (UDCA)” value is given as “lower”; the “HBeAg absorbance level relative to the negative control group (Mock)” value was “relatively lower”.
